Source: PMC7687371, “Quantitative in Vitro to in Vivo Extrapolation (QIVIVE) for Predicting Reduced Anogenital Distance Produced by Anti-Androgenic Pesticides in a Rodent Model for Male Reproductive Disorders” (Environmental Health Perspectives, 2020)
Read-outs that look alike come from different tables or passages of the source. Marks after values point to notes of the source that are not given here.

Legend:
pregnant dams and pups = settings: ref EFSA's Draft Assessment Reports (DARs); cited from earlier work
Sprague-Dawley rats [1] = assay: In vivo Study 4 (dimethomorph follow-up), reproductive/developmental toxicity, AGD
Wistar rats [2] = settings: rat, in vivo
[3] = PBK model simulation of fetal and maternal concentrations; set-up: species or system rat
Sprague-Dawley rats [4] = settings: male, rat, in vivo
Wistar rats [5] = assay: In vivo Study 3 (fludioxonil, cyprodinil, dimethomorph), reproductive/developmental toxicity, AGD; settings: for AGDI mean: Study 3, male pups
Wistar rats [6] = settings: male, rat, in vivo, 40 mg/kg/day
Description: In total, four in vivo exposure studies were conducted with pesticide exposures to pregnant rats during gestation and lactation to the selected compound (Table 2). […] For one selected dose of each compound, the internal body concentrations in dams and fetuses were determined by cesarean section at GD21. Due to the study outcomes from the third study, we conducted a fourth follow-up study on dimethomorph (Study 4).
Pup weights and AGD were measured after birth at PD1 using a stereomicroscope with a micrometer eyepiece and were determined as the distance between the genital papilla and the anus. To discriminate between an anti-androgenic effect and stunted growth, the AGD index (AGDI) was calculated by dividing AGD by the cube root of the BW (as described by [Hass et al. 2007]). The estimation of AGDI effect doses by regression modeling required a standardized AGDI scale. Therefore, we normalized the AGDI values in relation to the dynamic range spanned by the mean AGDI of the male and the female controls as (38) normalized AGDI=mean(AGDI of male controls)−AGDI(exposed animal)/mean(AGDI of male controls)−mean(AGDI of female controls).

Wistar rats [7] = settings: rat, in vivo; cited from earlier work

In the case of COc1ccc(C(=CC(=O)N2CCOCC2)c2ccc(Cl)cc2)cc1OC [Dimethomorph, dimethomorph], the Critical toxicity (pregnant dams and pups) is listed as “Reduced maternal and pup body weight, reduced gestation length”, the “LOAEL (mg/kg bw)” value (pregnant dams and pups) is listed as 67 mg/kg bw and the “NOAEL (mg/kg bw)” value (pregnant dams and pups) is listed as 20 mg/kg bw. For the same compound, the “% perinatal loss” value (Sprague-Dawley rats [1]; 20 mg/kg/bw) was 3.5 ± 6.3%, the “% postimplantation loss” value (Sprague-Dawley rats [1]; 20 mg/kg/bw) was 2.6 ± 4.9% and the “% postnatal deaths” value (Sprague-Dawley rats [1]; 20 mg/kg/bw) was 1.6 ± 3.7%. The “AGD females (mm)” value (Sprague-Dawley rats [1]; 20 mg/kg/bw) was 2.0 ± 0.1 mm, the “AGD females (units)” value (Sprague-Dawley rats [1]; 20 mg/kg/bw) was 12.4 ± 0.8 units and the AGD index females (Sprague-Dawley rats [1]; 20 mg/kg/bw) was 1.1 ± 0.1. For the same compound, the AGD index males (Sprague-Dawley rats [1]; 20 mg/kg/bw) was 1.94 ± 0.1, the “AGD males (mm)” value (Sprague-Dawley rats [1]; 20 mg/kg/bw) was 3.74 ± 0.2 mm and the “% perinatal loss” value (Sprague-Dawley rats [1]; 60 mg/kg/bw) was 5.7 ± 6.0%. The “% postimplantation loss” value (Sprague-Dawley rats [1]; 60 mg/kg/bw) was 4.3 ± 5.2%, the “% postnatal deaths” value (Sprague-Dawley rats [1]; 60 mg/kg/bw) was 1.4 ± 3.1% and the “AGD females (mm)” value (Sprague-Dawley rats [1]; 60 mg/kg/bw) was 1.9 ± 0.1 mm. The “AGD females (units)” value (Sprague-Dawley rats [1]; 60 mg/kg/bw) was 11.8 ± 0.6 units, the AGD index females (Sprague-Dawley rats [1]; 60 mg/kg/bw) was 1.0 ± 0.0 and the AGD index males (Sprague-Dawley rats [1]; 60 mg/kg/bw) was 1.87 ± 0.1. For the same compound, the “AGD males (mm)” value (Sprague-Dawley rats [1]; 60 mg/kg/bw) was 3.51 ± 0.2 mm, the Maternal toxicity (Sprague-Dawley rats [1]; 180 mg/kg per day, increased postimplantation and perinatal loss, higher postnatal death rate) was “indications for a mild maternal toxicity” and the “% perinatal loss” value (Sprague-Dawley rats [1]; 180 mg/kg/bw) was 13.3 ± 11.8%. For the same compound, the “% postimplantation loss” value (Sprague-Dawley rats [1]; 180 mg/kg/bw) was 10.1 ± 12.6%, the “% postnatal deaths” value (Sprague-Dawley rats [1]; 180 mg/kg/bw) was 3.2 ± 7.2% and the “AGD females (mm)” value (Sprague-Dawley rats [1]; 180 mg/kg/bw) was 2.0 ± 0.2 mm. The “AGD females (units)” value (Sprague-Dawley rats [1]; 180 mg/kg/bw) was 12.1 ± 0.9 units, the AGD index females (Sprague-Dawley rats [1]; 180 mg/kg/bw) was 1.1 ± 0.0 and the AGD index males (Sprague-Dawley rats [1]; 180 mg/kg/bw) was 1.90 ± 0.11. The “AGD males (mm)” value (Sprague-Dawley rats [1]; 180 mg/kg/bw) was 3.57 ± 0.2 mm, the “Shortening of AGDI compared with male controls (normalized AGDI scale)” value (Wistar rats [2]; male, Wistar (HanTac:WH)) was “around 10%” and the AGDI mean (Wistar rats [2]; male, Wistar, 20 mg/kg) was 2.01. The “AGDI reduction (%)” value (Wistar rats [2]; male, Wistar, 20 mg/kg/day) was 13%, the AGDI mean (Wistar rats [2]; male, Wistar, 60 mg/kg) was 2.16 and the “Nipple retention at PD14, statistics in words” value (Wistar rats [2]) was “no statistically significant effects on nipple retention”. The “Ratio between observation and prediction (fetal and dams' plasma concentrations)” value ([3]; GD21 measurements vs PBK simulations) was 0.5 to 2, the “Predicted maternal plasma level relative to analytically determined concentration” value ([3]; dams, GD21) was “approximately one-tenth” and the AGDI mean (Sprague-Dawley rats [4]; 20 mg/kg) was 1.95. The AGDI mean (Sprague-Dawley rats [4]; 60 mg/kg) was 1.88, the AGDI mean (Sprague-Dawley rats [4]; 180 mg/kg) was 1.91 and the “% postnatal deaths” value (Wistar rats [5]; 20 mg/kg bw/day) was 1.4 ± 3.8%. For the same compound, the AGD index females (Wistar rats [5]; 20 mg/kg bw/day) was 1.12 ± 0.03, the AGD index males (Wistar rats [5]; 20 mg/kg bw/day) was 2.01 ± 0.04 and the “% postnatal deaths” value (Wistar rats [5]; 60 mg/kg bw/day) was 2.6 ± 4.1%. The AGD index females (Wistar rats [5]; 60 mg/kg bw/day) was 1.18 ± 0.05 and the AGD index males (Wistar rats [5]; 60 mg/kg bw/day) was 2.15 ± 0.08.
For N#Cc1c[nH]cc1-c1cccc2c1OC(F)(F)O2 [Fludioxonil, fludioxonil], the Critical toxicity (pregnant dams and pups) is listed as “Reduced maternal and pup BW”, the “LOAEL (mg/kg bw)” value (pregnant dams and pups) is listed as 212 mg/kg bw and the “NOAEL (mg/kg bw)” value (pregnant dams and pups) is listed as 21 mg/kg bw. The “% perinatal loss” value (Wistar rats [5]; 20 mg/kg bw/day) was 11.5 ± 11.9%, the “% postimplantation loss” value (Wistar rats [5]; 20 mg/kg bw/day) was 8.4 ± 10.2% and the “% postnatal deaths” value (Wistar rats [5]; 20 mg/kg bw/day) was 3.1 ± 9.7%. The “%males” value (Wistar rats [5]; 20 mg/kg bw/day) was 54.8 ± 15.6%, the “AGD females (mm)” value (Wistar rats [5]; 20 mg/kg bw/day) was 2.15 ± 0.09 mm and the “AGD females (units)” value (Wistar rats [5]; 20 mg/kg bw/day) was 13.04 ± 0.5 units. For the same compound, the “AGD males (mm)” value (Wistar rats [5]; 20 mg/kg bw/day) was 3.84 ± 0.12 mm, the “AGD males (units)” value (Wistar rats [5]; 20 mg/kg bw/day) was 23.26 ± 0.7 units and the “Dam bw gain PD 1-14” value (Wistar rats [5]; 20 mg/kg bw/day) was 33.1 ± 12.7. The “Dam bw gain, GD7- PD 1” value (Wistar rats [5]; 20 mg/kg bw/day) was 23.8 ± 10.5, the “Dam bw gain,GD7-21” value (Wistar rats [5]; 20 mg/kg bw/day) was 92.7 ± 15.8 and the Female birth weight (Wistar rats [5]; 20 mg/kg bw/day) was 6.21 ± 0.5. For the same compound, the “Gestation length” value (Wistar rats [5]; 20 mg/kg bw/day) was 23.0 ± 0.0 days, the Litter size (Wistar rats [5]; 20 mg/kg bw/day) was 10.5 ± 2.4 and the Male birth weight (Wistar rats [5]; 20 mg/kg bw/day) was 6.48 ± 0.4. For the same compound, the “Male weights PD 23” value (Wistar rats [5]; 20 mg/kg bw/day) was 48.66 ± 6.1, the Nipple retention females (Wistar rats [5]; 20 mg/kg bw/day) was 12.21 ± 0.2 and the Nipple retention males (Wistar rats [5]; 20 mg/kg bw/day) was 0.04 ± 0.09. The “Offspring weight PD 6” value (Wistar rats [5]; 20 mg/kg bw/day) was 12.98 ± 1.3, the “Offspring weight PD 14” value (Wistar rats [5]; 20 mg/kg bw/day) was 28.07 ± 3.3 and the “% perinatal loss” value (Wistar rats [5]; 60 mg/kg bw/day) was 18.7 ± 32.5%. For the same compound, the “% postimplantation loss” value (Wistar rats [5]; 60 mg/kg bw/day) was 15.9 ± 32.1%, the “% postnatal deaths” value (Wistar rats [5]; 60 mg/kg bw/day) was 3.4 ± 9.6% and the “%males” value (Wistar rats [5]; 60 mg/kg bw/day) was 47.2 ± 14.5%. The “AGD females (mm)” value (Wistar rats [5]; 60 mg/kg bw/day) was 2.10 ± 0.11 mm, the “AGD females (units)” value (Wistar rats [5]; 60 mg/kg bw/day) was 12.70 ± 0.6 units and the “AGD males (mm)” value (Wistar rats [5]; 60 mg/kg bw/day) was 3.77 ± 0.16 mm. The “AGD males (units)” value (Wistar rats [5]; 60 mg/kg bw/day) was 22.83 ± 1.0 units, the “Dam bw gain PD 1-14” value (Wistar rats [5]; 60 mg/kg bw/day) was 38.1 ± 10.8 and the “Dam bw gain, GD7- PD 1” value (Wistar rats [5]; 60 mg/kg bw/day) was 16.8 ± 8.1. The “Dam bw gain,GD7-21” value (Wistar rats [5]; 60 mg/kg bw/day) was 84.8 ± 9.7, the Female birth weight (Wistar rats [5]; 60 mg/kg bw/day) was 6.18 ± 0.3 and the “Gestation length” value (Wistar rats [5]; 60 mg/kg bw/day) was 23.0 ± 0.0 days. For the same compound, the Litter size (Wistar rats [5]; 60 mg/kg bw/day) was 11.0 ± 1.3, the Male birth weight (Wistar rats [5]; 60 mg/kg bw/day) was 6.58 ± 0.4 and the “Male weights PD 23” value (Wistar rats [5]; 60 mg/kg bw/day) was 49.78 ± 6.9. The Nipple retention females (Wistar rats [5]; 60 mg/kg bw/day) was 12.13 ± 0.2, the Nipple retention males (Wistar rats [5]; 60 mg/kg bw/day) was 0.08 ± 0.16 and the “Offspring weight PD 6” value (Wistar rats [5]; 60 mg/kg bw/day) was 13.20 ± 1.6. For the same compound, the “Offspring weight PD 14” value (Wistar rats [5]; 60 mg/kg bw/day) was 28.41 ± 4.2, the “% perinatal loss” value (Wistar rats [5]; 180 mg/kg bw/day) was 32.3 ± 35.6% and the “% postimplantation loss” value (Wistar rats [5]; 180 mg/kg bw/day) was 31.4 ± 36.0%. For the same compound, the “% postnatal deaths” value (Wistar rats [5]; 180 mg/kg bw/day) was 1.1 ± 2.7%, the “%males” value (Wistar rats [5]; 180 mg/kg bw/day) was 63.0 ± 20.8% and the “AGD females (mm)” value (Wistar rats [5]; 180 mg/kg bw/day) was 2.15 ± 0.10 mm. The “AGD females (units)” value (Wistar rats [5]; 180 mg/kg bw/day) was 13.04 ± 0.6 units, the “AGD males (mm)” value (Wistar rats [5]; 180 mg/kg bw/day) was 3.81 ± 0.18 mm and the “AGD males (units)” value (Wistar rats [5]; 180 mg/kg bw/day) was 23.11 ± 1.1 units. For the same compound, the “Dam bw gain PD 1-14” value (Wistar rats [5]; 180 mg/kg bw/day) was 23.2 ± 15.5, the “Dam bw gain, GD7- PD 1” value (Wistar rats [5]; 180 mg/kg bw/day) was 17.5 ± 14.9 and the “Dam bw gain,GD7-21” value (Wistar rats [5]; 180 mg/kg bw/day) was 71.3 ± 20.7. For the same compound, the Female birth weight (Wistar rats [5]; 180 mg/kg bw/day) was 6.06 ± 0.5, the “Gestation length” value (Wistar rats [5]; 180 mg/kg bw/day) was 22.8 ± 0.75 days and the Litter size (Wistar rats [5]; 180 mg/kg bw/day) was 8.2 ± 5.0. For the same compound, the Male birth weight (Wistar rats [5]; 180 mg/kg bw/day) was 6.51 ± 0.6, the “Male weights PD 23” value (Wistar rats [5]; 180 mg/kg bw/day) was 47.97 ± 5.6 and the Nipple retention females (Wistar rats [5]; 180 mg/kg bw/day) was 12.41 ± 0.6. The Nipple retention males (Wistar rats [5]; 180 mg/kg bw/day) was 0.47 ± 0.78, the “Offspring weight PD 6” value (Wistar rats [5]; 180 mg/kg bw/day) was 12.54 ± 1.9 and the “Offspring weight PD 14” value (Wistar rats [5]; 180 mg/kg bw/day) was 26.58 ± 4.1. For the same compound, the “Nipple retention at PD14, statistics in words” value (Wistar rats [5]; Study 3) was “no statistically significant effects on nipple retention”, the AGDI mean (Wistar rats [5]; dose 20 mg/kg BW) was 2.06 and the AGDI mean (Wistar rats [5]; dose 60 mg/kg BW) was 2.01. For the same compound, the AGDI mean (Wistar rats [5]; dose 180 mg/kg BW) was 2.06 and the “AGDI reduction (%)” value (Wistar rats [5]; male offspring, normalized AGDI scale, dose 60 mg/kg BW per day) was 13%.
In the case of CC12CC1(C)C(=O)N(c1cc(Cl)cc(Cl)c1)C2=O (stereo not drawn) [Procymidone, procymidone, reference compound], the “AGDI reduction (%)” value (Wistar rats [6]) is listed as 34^d % and the “AGDI ED50” value (Wistar rats [7]) is listed as 69.4 mg/kg BW.
